From the supplement of paper PMC10307832

Tests used:
Test in all cases: relative viability (nuclei count vs DMSO), 5 days (fraction); higher = more cells survive
OSI-027 + Luminespib = compound: COc1cccc2cc(-c3nc([C@H]4CC[C@H](C(=O)O)CC4)n4ncnc(N)c34)[nH]c12 [OSI-027] + CCNC(=O)c1noc(-c2cc(C(C)C)c(O)cc2O)c1-c1ccc(CN2CCOCC2)cc1 [Luminespib] (partner 0.01 µM)
Summary of the method: (§1)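 Nuclei were stained with Hoechst during a one-step fixation (final 0.05% Triton X-100, 1% formaldehyde, 1 ug/ml Hoechst) carried out 5 days after dosing, then counted on 4× images. The cells, lung cancer lines in 1536-well plates, had been dosed by pin tool the day after seeding with one drug alone or a fixed anchor-drug dose plus five library-drug doses (not always all listed) in √10 steps. Relative viability is the nuclei count in treated wells divided by that in vehicle wells, and each value is the median of duplicate plates.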

Alpelisib + Luminespib = compound: Cc1nc(NC(=O)N2CCC[C@H]2C(N)=O)sc1-c1ccnc(C(C)(C)C(F)(F)F)c1 [Alpelisib] + CCNC(=O)c1noc(-c2cc(C(C)C)c(O)cc2O)c1-c1ccc(CN2CCOCC2)cc1 [Luminespib] (partner 0.01 µM)
Summary of the method: as §1

OSI-027 + Dasatinib = compound: COc1cccc2cc(-c3nc([C@H]4CC[C@H](C(=O)O)CC4)n4ncnc(N)c34)[nH]c12 [OSI-027] + Cc1nc(Nc2ncc(C(=O)Nc3c(C)cccc3Cl)s2)cc(N2CCN(CCO)CC2)n1 [Dasatinib] (partner 0.075 µM)
Summary of the method: as §1

OSI-027 + Alpelisib = compound: COc1cccc2cc(-c3nc([C@H]4CC[C@H](C(=O)O)CC4)n4ncnc(N)c34)[nH]c12 [OSI-027] + Cc1nc(NC(=O)N2CCC[C@H]2C(N)=O)sc1-c1ccnc(C(C)(C)C(F)(F)F)c1 [Alpelisib] (partner 2 µM)
Summary of the method: as §1

Cell Line | relative viability (OSI-027 + Luminespib; first compound 0.01 µM) | relative viability (OSI-027 + Luminespib; first compound 0.03162 µM) | relative viability (OSI-027 + Luminespib; first compound 0.1 µM) | relative viability (OSI-027 + Luminespib; first compound 0.3162 µM) | relative viability (OSI-027 + Luminespib; first compound 1 µM) | relative viability (Alpelisib + Luminespib; first compound 0.04 µM) | relative viability (Alpelisib + Luminespib; first compound 0.1265 µM) | relative viability (Alpelisib + Luminespib; first compound 0.4 µM) | relative viability (Alpelisib + Luminespib; first compound 1.265 µM) | relative viability (Alpelisib + Luminespib; first compound 4 µM) | relative viability (OSI-027 + Dasatinib; first compound 0.01 µM) | relative viability (OSI-027 + Dasatinib; first compound 0.03162 µM) | relative viability (OSI-027 + Dasatinib; first compound 0.1 µM) | relative viability (OSI-027 + Dasatinib; first compound 0.3162 µM) | relative viability (OSI-027 + Dasatinib; first compound 1 µM) | relative viability (OSI-027 + Alpelisib; first compound 0.01 µM) | relative viability (OSI-027 + Alpelisib; first compound 0.03162 µM) | relative viability (OSI-027 + Alpelisib; first compound 0.1 µM) | relative viability (OSI-027 + Alpelisib; first compound 0.3162 µM) | relative viability (OSI-027 + Alpelisib; first compound 1 µM)
NCI-H1395 | 0.717 | 0.556 | 0.621 | 0.546 | 0.439 | 0.568 | 0.663 | 0.755 | 0.604 | 0.724 | 0.385 | 0.398 | 0.373 | 0.341 | 0.343 | 1.04 | 1.14 | 0.974 | 0.93 | 0.757
NCI-H1437 | 1.08 | 1.12 | 1.16 | 1.14 | 0.806 | 1.16 | 1.09 | 1.2 | 1.07 | 1.26 | 0.421 | 0.441 | 0.32 | 0.373 | 0.192 | 1 | 0.676 | 0.895 | 0.521 | 0.272
NCI-H1563 | 0.479 | 0.479 | 0.455 | 0.517 | 0.481 | 0.488 | 0.479 | 0.404 | 0.503 | 0.462 | 0.444 | 0.467 | 0.447 | 0.457 | 0.454 | 0.983 | 0.888 | 0.82 | 0.673 | 0.759
NCI-H1651 | 0.866 | 0.691 | 1.08 | 0.79 | 0.725 | 0.78 | 1.05 | 1 | 0.78 | 0.666 | 0.405 | 0.325 | 0.352 | 0.358 | 0.213 | 1.1 |  | 0.882 | 0.713 | 0.559
NCI-H1666 | 1.01 | 1 | 0.996 | 0.891 | 0.915 | 0.973 | 1.03 | 1.12 | 0.921 | 0.965 | 0.825 | 0.778 | 0.732 | 0.733 | 0.463 | 0.869 | 1.02 | 0.658 | 0.43 | 0.488
NCI-H1734 | 0.174 | 0.179 | 0.203 | 0.166 | 0.178 | 0.19 |  | 0.18 | 0.183 | 0.167 | 0.473 | 0.408 | 0.45 | 0.388 | 0.282 | 0.642 | 0.694 | 0.63 | 0.517 | 0.259
NCI-H1755 | 0.577 | 0.533 | 0.369 | 0.382 | 0.416 | 0.352 | 0.415 | 0.418 | 0.42 | 0.395 | 0.392 | 0.458 | 0.39 | 0.42 | 0.229 | 0.92 | 0.849 | 0.917 | 0.8 | 0.353
NCI-H1792 | 0.737 | 0.268 | 0.37 | 0.422 | 0.18 | 0.338 | 0.5 | 0.576 | 0.326 | 0.323 | 0.664 | 0.617 | 0.818 | 0.7 | 0.211 | 1.07 | 0.517 | 0.623 | 0.495 | 0.188
NCI-H1793 | 0.162 | 0.188 | 0.168 | 0.132 | 0.168 | 0.194 | 0.177 | 0.154 | 0.165 | 0.179 | 0.352 | 0.391 | 0.389 | 0.279 | 0.193 | 0.831 | 0.589 | 0.466 | 0.307 | 0.189
NCI-H1915 | 1.04 | 0.972 | 0.862 | 0.687 | 0.562 | 0.738 | 0.725 | 0.829 | 0.643 | 0.766 | 0.289 | 0.307 | 0.279 | 0.24 | 0.145 | 1.11 | 1.12 | 1.13 | 0.956 | 0.605
NCI-H1944 | 0.856 | 0.82 | 0.537 | 0.534 | 0.273 | 0.644 | 0.739 | 0.706 | 0.456 | 0.275 | 0.192 | 0.204 | 0.191 | 0.178 | 0.162 | 0.855 | 0.796 | 0.764 | 0.607 | 0.301
NCI-H1975 | 0.232 | 0.195 | 0.157 | 0.121 | 0.187 | 0.227 | 0.204 | 0.199 | 0.184 | 0.155 | 0.309 | 0.362 | 0.334 | 0.301 | 0.316 | 0.659 | 0.667 | 0.455 | 0.38 | 0.355
NCI-H1993 | 0.815 | 0.795 | 0.71 | 0.498 | 0.548 | 0.751 | 0.744 | 0.758 | 0.476 | 0.503 | 0.516 | 0.543 | 0.469 | 0.541 | 0.549 | 0.647 | 0.646 | 0.562 | 0.533 | 0.655
NCI-H2009 | 1.08 | 1.06 | 1.05 | 0.924 | 0.603 | 0.995 | 0.999 | 1.14 | 1.06 | 1.08 | 0.271 | 0.264 | 0.248 | 0.213 | 0.207 | 1.14 | 1.14 | 1.07 | 0.999 | 0.568
NCI-H2023 | 0.812 | 0.59 | 0.646 | 0.709 | 0.27 | 0.644 | 0.606 | 0.679 | 0.505 | 0.4 | 0.588 | 0.621 | 0.505 | 0.338 | 0.192 | 0.608 | 0.499 | 0.505 | 0.34 | 0.19
NCI-H2085 | 0.647 | 0.437 | 0.439 | 0.341 | 0.231 | 0.504 | 0.419 | 0.46 | 0.415 | 0.364 | 0.199 | 0.222 | 0.188 | 0.227 | 0.211 | 0.927 | 0.925 | 0.835 | 0.727 | 0.592
